This assay has as its target T1, leucine aminopeptidase, LAP (Sus scrofa, UniProt P15145).
T1 construct: purchased SIGMA L5006-25UN; host or cells: porcine kidney (tissue-derived)
T1 sequence (P15145 1-963): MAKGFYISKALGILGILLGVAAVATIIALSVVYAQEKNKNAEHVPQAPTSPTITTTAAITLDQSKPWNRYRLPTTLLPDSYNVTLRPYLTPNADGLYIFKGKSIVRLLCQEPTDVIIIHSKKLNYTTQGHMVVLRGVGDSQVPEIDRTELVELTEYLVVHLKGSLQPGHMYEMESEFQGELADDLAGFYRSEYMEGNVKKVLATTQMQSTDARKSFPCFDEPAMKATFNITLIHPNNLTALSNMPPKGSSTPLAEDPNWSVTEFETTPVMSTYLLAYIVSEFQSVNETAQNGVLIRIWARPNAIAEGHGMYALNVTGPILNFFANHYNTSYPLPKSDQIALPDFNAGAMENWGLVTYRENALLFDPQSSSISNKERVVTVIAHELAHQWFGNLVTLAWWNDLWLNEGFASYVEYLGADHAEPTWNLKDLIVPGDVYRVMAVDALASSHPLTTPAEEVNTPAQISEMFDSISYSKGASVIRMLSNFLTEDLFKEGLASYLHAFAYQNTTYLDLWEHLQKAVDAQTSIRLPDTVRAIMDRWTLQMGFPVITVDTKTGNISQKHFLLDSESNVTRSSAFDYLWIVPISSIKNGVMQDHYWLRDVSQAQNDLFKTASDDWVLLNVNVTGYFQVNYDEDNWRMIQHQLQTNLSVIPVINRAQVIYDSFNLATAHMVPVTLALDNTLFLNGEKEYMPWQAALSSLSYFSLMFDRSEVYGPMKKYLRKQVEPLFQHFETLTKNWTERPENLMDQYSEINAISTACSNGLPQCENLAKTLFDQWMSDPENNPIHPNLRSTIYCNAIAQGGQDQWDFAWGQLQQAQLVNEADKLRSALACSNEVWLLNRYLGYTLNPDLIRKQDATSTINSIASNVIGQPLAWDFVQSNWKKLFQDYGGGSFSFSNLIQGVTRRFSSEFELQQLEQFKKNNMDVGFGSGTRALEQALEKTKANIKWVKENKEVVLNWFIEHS
In words: Enzymatic reaction of probe with leucine aminopeptidase, fluorescence/absorption readout. Type of assay: biochemical, porcine. The following applies: 5 μM compound. The method, then:
Compound (2) (Leu-RhoHM) and Compound (3) (γGlu-RhoHM) formed by bonding acyl residues derived from leucine and glutamic acid to one amino group of Compound (1) (RhoHM), respectively, were each dissolved in a neutral phosphate buffer, and reacted with a protease (leucine aminopeptidase, LAP, porcine kidney, SIGMA L5006-25UN) and γ-glutamyl transpeptidase (GGT, equine kidney, SIGMA G9270-100UN). Specifically, 3 μL of a […] solution of each compound in dimethyl sulfoxide (DMSO) was dissolved in 3 mL of a 0.1 M sodium phosphate buffer (pH 7.4) at a final concentration of 5 μM, and each of LAP (0.15 U) and GGT (1.1 U) was added to the solution to allow an enzymatic reaction at 37° C. The excitation wavelength was 501 nm.
Further, each of the DMSO solutions of both compounds (5 mM) in a volume of 3 μL was dissolved in 3 mL of a 0.1 M sodium phosphate buffer (pH 7.4) at a final concentration of 5 μM, and the enzymatic reaction was performed at 37° C. The values of fluorescence intensity observed with each amount of the enzymes 1 minute (Leu-RhoHM) or 9 minutes (γGlu-RhoHM) after the addition of the enzyme were plotted. The excitation wavelength was 501 nm, and the fluorescence emission wavelength was 524 nm.
Enzyme specificity of Compounds (2) and (3) was examined. Each of the DMSO solutions (3 μL) was dissolved in 3 mL of a 0.1 M sodium phosphate buffer (pH 7.4) at a final concentration of 5 μM, and LAP (0.4 U) was added to the solution to perform the enzymatic reaction at 37° C.

For `CC(C)C[C@H](N)C(=O)Nc1ccc2c(c1)Oc1cc(N)ccc1C21OCc2ccccc21` (stereo partly drawn) [Compound (2)], the “change of absorption and fluorescence intensity on reaction with LAP” value (0.1 M sodium phosphate buffer pH 7.4, LAP 0.15 U, 37° C., excitation 501 nm) is “prompt marked increase of absorption and fluorescence intensity”. Also, the “change of fluorescence intensity after reaction with LAP (enzyme specificity)” value (0.1 M sodium phosphate buffer pH 7.4, LAP 0.4 U, 37° C.) is “marked increase of fluorescence intensity”. Moreover, where the note is “pH 7.4, 37° C., 1 minute after addition of the enzyme, excitation 501 nm, emission 524 nm”, the “fluorescence intensity versus added LAP amount” value is “linear increase of fluorescence intensity”.
